Source: PubChem BioAssay AID1259407 (Chemical Carcinogenesis Research Information System (CCRIS), 2018)
The source made the active and inactive calls. How the calls were made is not given here.

System: CCRIS mutagenicity, Ames/micronucleus/aberration tests
Assay: CCRIS mutagenicity studies

Measured: mutagenic call

O=P1(N(CCCl)CCCl)NCCCO1 (stereo unspecified)
active: End Point: IN VITRO CHROMOSOMAL ABERRATIONS, Test System: CHL/IU CELLS, Metabolic Activation: RAT, LIVER, S-9, PHENOBARBITAL AND 5,6-BENZOFLAVONE active; positive (structural changes) | End Point: IN VITRO CHROMOSOMAL ABERRATIONS, Test System: HUMAN LYMPHOCYTES, Metabolic Activation: RAT LIVER S-9, AROCLOR 1254 active; positive | End Point: IN VITRO MICRONUCLEUS, Test System: BOVINE LYMPHOCYTES, Metabolic Activation: S-9 MIX, AROCLOR 1254 active; positive | End Point: IN VITRO MICRONUCLEUS, Test System: CHL/IU CELLS, Metabolic Activation: RAT, LIVER, S-9, PHENOBARBITAL AND 5,6-BENZOFLAVONE active; positive | End Point: IN VITRO MICRONUCLEUS, Test System: CHO CELLS, Metabolic Activation: RAT, LIVER, S-9, AROCLOR 1254 active; positive | End Point: IN VIVO MICRONUCLEUS, Test System: BLOOD ERYTHROCYTES, Species: MOUSE, Strain/Sex: CD-1/MALE, Route: ORAL active; positive | End Point: IN VIVO MICRONUCLEUS, Test System: BONE MARROW CELLS, Species: MOUSE, Strain/Sex: CD-1/MALE, Route: GAVAGE active; positive | End Point: IN VIVO MICRONUCLEUS, Test System: BONE MARROW ERYTHROCYTES, Species: HAMSTER, Strain/Sex: SYRIAN/MALE, Route: INTRAPERITONEAL active; positive | End Point: IN VIVO MICRONUCLEUS, Test System: BONE MARROW POLYCHROMATIC ERYTHROCYTES, Species: MOUSE, Strain/Sex: SWISS/MALE, Route: IP active; positive | End Point: In vivo chromosomal aberrations, Test System: Bone marrow cells, Species: Rat, Strain/Sex: Wistar/Male, Route: Intraperitoneal injection active; positive (structural changes: gaps, breaks). effect by 100 or 200 mg/kg alpha-li | End Point: In vivo micronucleus, Test System: Bone marrow erythrocytes, Species: Mouse, Strain/Sex: NMRI/Male, Route: Intraperitoneal active; positive (hawthorn extract significantly reduced micronucleated polychromatic er | End Point: In vivo micronucleus, Test System: Bone marrow erythrocytes, Species: Mouse, Strain/Sex: Swiss/Male, Route: Intraperitoneal active; positive (pue or 4-nc showed dose-dependent protective effect against cyclophosp | End Point: In vivo micronucleus, Test System: Peripheral blood and bone marrow erythrocytes, Species: Dog, Strain/Sex: Beagle/Male and female, Route: Intravenous active; positive. evaluations by flow cytometry and manual counting; multi-laboratory st | End Point: MICRONUCLEUS, Test System: BONE MARROW, Species: RAT, Strain/Sex: WISTAR, Route: INTRAPERITONEAL active; positive | Test System: AMES SALMONELLA TYPHIMURIUM, Strain/Indicator: TA100, Metabolic Activation: MOUSE, LIVER, S-9, PHENOBARBITAL AND BETA-NAPHTHOFLAVONE, Method: STANDARD PLATE active; positive | Test System: AMES SALMONELLA TYPHIMURIUM, Strain/Indicator: TA100, Metabolic Activation: MOUSE, LIVER, S-9, PHENOBARBITAL, BETA-NAPHTHOFLAVONE, ISOSAFROLE, ETHANOL, PREGNENOLONE AND 16ALPHA-CARBONITRILE, Method: STANDARD PLATE active; positive | Test System: AMES SALMONELLA TYPHIMURIUM, Strain/Indicator: TA100, Metabolic Activation: NONE, Method: SPIRAL ASSAY active; positive | Test System: AMES SALMONELLA TYPHIMURIUM, Strain/Indicator: TA100, Metabolic Activation: RAT, LIVER, PARENCHYMAL CELLS (FRESHLY ISOLATED OR STORED FOR 1 D), Method: PREINCUBATION active; positive | Test System: AMES SALMONELLA TYPHIMURIUM, Strain/Indicator: TA100, Metabolic Activation: RAT, LIVER, S-9, AROCLOR 1254, Method: SPIRAL ASSAY active; positive | Test System: AMES SALMONELLA TYPHIMURIUM, Strain/Indicator: TA100, Metabolic Activation: RAT, LIVER, S-9, AROCLOR 1254, Method: STANDARD PLATE active; positive | Test System: AMES SALMONELLA TYPHIMURIUM, Strain/Indicator: TA100, Metabolic Activation: RAT, LIVER, S-9, PHENOBARBITAL AND ALPHA-NAPHTHOFLAVONE, Method: STANDARD PLATE active; positive | Test System: AMES SALMONELLA TYPHIMURIUM, Strain/Indicator: TA100, Metabolic Activation: RAT,LIVER, HEPATOCYTES, PHENOBARBITAL, Method: PREINCUBATION active; positive | Test System: AMES SALMONELLA TYPHIMURIUM, Strain/Indicator: TA100, Metabolic Activation: S-9, Method: PREINCUBATION active; positive | Test System: AMES SALMONELLA TYPHIMURIUM, Strain/Indicator: TA100, Metabolic Activation: S-9, Method: STANDARD PLATE active; positive | Test System: AMES SALMONELLA TYPHIMURIUM, Strain/Indicator: TA1535, Metabolic Activation: NONE, Method: SPIRAL ASSAY active; positive | Test System: AMES SALMONELLA TYPHIMURIUM, Strain/Indicator: TA1535, Metabolic Activation: RAT (MALE), LIVER, HEPATOCYTES, AROCLOR 1254, Method: STANDARD PLATE active; positive | Test System: AMES SALMONELLA TYPHIMURIUM, Strain/Indicator: TA1535, Metabolic Activation: RAT (MALE), LIVER, HEPATOCYTES, Method: STANDARD PLATE active; positive | Test System: AMES SALMONELLA TYPHIMURIUM, Strain/Indicator: TA1535, Metabolic Activation: RAT (PREGNANT FEMALE), LIVER, HEPATOCYTES, AROCLOR 1254, Method: STANDARD PLATE active; positive | Test System: AMES SALMONELLA TYPHIMURIUM, Strain/Indicator: TA1535, Metabolic Activation: RAT, LIVER, HEPATOCYTES, PHENOBARBITAL, Method: PREINCUBATION active; positive | Test System: AMES SALMONELLA TYPHIMURIUM, Strain/Indicator: TA1535, Metabolic Activation: RAT, LIVER, S-9, AROCLOR 1254, Method: PREINCUBATION active; positive | Test System: AMES SALMONELLA TYPHIMURIUM, Strain/Indicator: TA1535, Metabolic Activation: RAT, LIVER, S-9, AROCLOR 1254, Method: SPIRAL ASSAY active; positive | Test System: AMES SALMONELLA TYPHIMURIUM, Strain/Indicator: TA1535, Metabolic Activation: RAT, LIVER, S-9, PHENOBARBITAL AND ALPHA-NAPHTHOFLAVONE, Method: STANDARD PLATE active; positive | Test System: AMES SALMONELLA TYPHIMURIUM, Strain/Indicator: TA1535, Metabolic Activation: RAT, LIVER, S-9, PHENOBARBITAL, Method: STANDARD PLATE active; positive | Test System: AMES SALMONELLA TYPHIMURIUM, Strain/Indicator: TA1535, Metabolic Activation: RAT, LIVER, S-9, Method: STANDARD PLATE active; positive | Test System: CHINESE HAMSTER V-79, Strain/Indicator: V-79/6-THIOGUANINE, Metabolic Activation: RAT, LIVER, HEPATOCYTES, Method: SUSPENSION/PLATE active; positive | Test System: E. COLI, Strain/Indicator: WP2 (HCR), Metabolic Activation: S-9, Method: STANDARD PLATE active; positive | Test System: E. COLI, Strain/Indicator: WP2, Metabolic Activation: NONE, Method: FLUCTUATION (MICROTITER) active; positive | Test System: E. COLI, Strain/Indicator: WP2 UVRA, Metabolic Activation: NONE, Method: FLUCTUATION (MICROTITER) active; positive | Test System: MOUSE LYMPHOMA, Strain/Indicator: L5178Y (TK+/TK-), Metabolic Activation: NONE, Method: SUSPENSION/PLATE active; positive | Test System: UDS RAT HEPATOCYTES, Strain/Indicator: THY INCORP, Metabolic Activation: NONE, Method: AUTORADIOGRAPHY active; positive | Test System: UDS RAT HEPATOCYTES, Strain/Indicator: THY INCORP, Metabolic Activation: NONE, Method: AUTORADIOGRAPHY (SERUM-FREE MEDIA) active; positive
inactive: End Point: In vivo micronucleus, Test System: Micronucleated hepatocytes, Species: Rat, Strain/Sex: F344/Male, Route: Oral inactive; negative | Test System: AMES SALMONELLA TYPHIMURIUM, Strain/Indicator: TA97, Metabolic Activation: NONE, Method: STANDARD PLATE inactive; negative | Test System: AMES SALMONELLA TYPHIMURIUM, Strain/Indicator: TA97, Metabolic Activation: RAT, LIVER, S-9, PHENOBARBITAL AND ALPHA-NAPHTHOFLAVONE, Method: STANDARD PLATE inactive; negative | Test System: AMES SALMONELLA TYPHIMURIUM, Strain/Indicator: TA98, Metabolic Activation: NONE, Method: PREINCUBATION inactive; negative | Test System: AMES SALMONELLA TYPHIMURIUM, Strain/Indicator: TA98, Metabolic Activation: NONE, Method: SPIRAL ASSAY inactive; negative | Test System: AMES SALMONELLA TYPHIMURIUM, Strain/Indicator: TA98, Metabolic Activation: NONE, Method: STANDARD PLATE inactive; negative | Test System: AMES SALMONELLA TYPHIMURIUM, Strain/Indicator: TA98, Metabolic Activation: RAT, LIVER, S-9, AROCLOR 1254, Method: SPIRAL ASSAY inactive; negative | Test System: AMES SALMONELLA TYPHIMURIUM, Strain/Indicator: TA98, Metabolic Activation: RAT, LIVER, S-9, PHENOBARBITAL AND ALPHA-NAPHTHOFLAVONE, Method: STANDARD PLATE inactive; negative | Test System: AMES SALMONELLA TYPHIMURIUM, Strain/Indicator: TA98, Metabolic Activation: S-9, Method: PREINCUBATION inactive; negative | Test System: AMES SALMONELLA TYPHIMURIUM, Strain/Indicator: TA98, Metabolic Activation: S-9, Method: STANDARD PLATE inactive; negative | Test System: AMES SALMONELLA TYPHIMURIUM, Strain/Indicator: TA100, Metabolic Activation: NONE, Method: PREINCUBATION inactive; negative | Test System: AMES SALMONELLA TYPHIMURIUM, Strain/Indicator: TA100, Metabolic Activation: RAT, LIVER, PARENCHYMAL CELLS (CRYOPRESERVED), Method: PREINCUBATION inactive; negative | Test System: AMES SALMONELLA TYPHIMURIUM, Strain/Indicator: TA1535, Metabolic Activation: RAT (PREGNANT FEMALE), LIVER, HEPATOCYTES, Method: STANDARD PLATE inactive; negative | Test System: AMES SALMONELLA TYPHIMURIUM, Strain/Indicator: TA1537, Metabolic Activation: NONE, Method: SPIRAL ASSAY inactive; negative | Test System: AMES SALMONELLA TYPHIMURIUM, Strain/Indicator: TA1537, Metabolic Activation: NONE, Method: STANDARD PLATE inactive; negative | Test System: AMES SALMONELLA TYPHIMURIUM, Strain/Indicator: TA1537, Metabolic Activation: RAT, LIVER, S-9, AROCLOR 1254, Method: SPIRAL ASSAY inactive; negative | Test System: AMES SALMONELLA TYPHIMURIUM, Strain/Indicator: TA1537, Metabolic Activation: S-9, Method: STANDARD PLATE inactive; negative | Test System: CHINESE HAMSTER V-79, Strain/Indicator: V-79/6-THIOGUANINE, Metabolic Activation: NONE, Method: SUSPENSION/PLATE inactive; negative | Test System: E. COLI, Strain/Indicator: WP2 UVRA, Metabolic Activation: HAMSTER, LIVER, S-9, AROCLOR 1254, Method: STANDARD PLATE inactive; negative | Test System: E. COLI, Strain/Indicator: WP2 UVRA, Metabolic Activation: HAMSTER, LIVER, S-9, Method: STANDARD PLATE inactive; negative | Test System: E. COLI, Strain/Indicator: WP2 UVRA, Metabolic Activation: MOUSE, LIVER, S-9, AROCLOR 1254, Method: STANDARD PLATE inactive; negative | Test System: E. COLI, Strain/Indicator: WP2 UVRA, Metabolic Activation: MOUSE, LIVER, S-9, Method: STANDARD PLATE inactive; negative | Test System: E. COLI, Strain/Indicator: WP2 UVRA, Metabolic Activation: NONE, Method: STANDARD PLATE inactive; negative | Test System: E. COLI, Strain/Indicator: WP2 UVRA, Metabolic Activation: RAT, LIVER, S-9, AROCLOR 1254, Method: STANDARD PLATE inactive; negative | Test System: E. COLI, Strain/Indicator: WP2 UVRA, Metabolic Activation: RAT, LIVER, S-9, Method: STANDARD PLATE inactive; negative
